Measurements reported in PubChem BioAssay AID330 (DTP/NCI, 2004).
Several values for one entry are separate records, joined by “and”; a condition that tells them apart may be missing. Identical values can stand only once. Toxic doses and inconclusive results are not listed.

Tested on: P388 leukemia ip, CD2F1 mice, survival T/C
Assay: NCI In Vivo Anticancer Drug Screen. Data for tumor model P388 Leukemia (intraperitoneal) in CD2F1 (CDF1) mice
Details: endpoint: median survival time, higher = longer survival
Summary of the method: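 Mice carrying the transplanted tumor received test compound or vehicle. Survival was recorded in each group, and the value is the treated-group measurement divided by that of the vehicle-treated control group.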

[1] = dose: 100.0 mg/kg/injection, schedule: Q01DX009 (ip), vehicle: saline with Tween-80
[2] = dose: 200.0 mg/kg/injection, schedule: Q01DX009 (ip), vehicle: saline with Tween-80
[3] = dose: 50.0 mg/kg/injection, schedule: Q01DX009 (ip), vehicle: saline
[4] = dose: 100.0 mg/kg/injection, schedule: Q01DX009 (ip), vehicle: saline
[5] = dose: 6.25 mg/kg/injection, schedule: Q01DX009 (ip), vehicle: saline with Tween-80
[6] = dose: 12.5 mg/kg/injection, schedule: Q01DX009 (ip), vehicle: saline with Tween-80
[7] = dose: 50.0 mg/kg/injection, schedule: Q01DX009 (ip), vehicle: saline with Tween-80
[8] = dose: 12.5 mg/kg/injection, schedule: Q01DX009 (ip), vehicle: saline
[9] = dose: 50.0 mg/kg/injection, schedule: Q01DX005 (ip), vehicle: saline with Tween-80
[10] = dose: 100.0 mg/kg/injection, schedule: Q01DX005 (ip), vehicle: saline with Tween-80
[11] = dose: 25.0 mg/kg/injection, schedule: Q01DX005 (ip), vehicle: saline with Tween-80
[12] = dose: 200.0 mg/kg/injection, schedule: Q01DX005 (ip), vehicle: saline with Tween-80

Cc1ccccc1C[P+](c1ccccc1)(c1ccccc1)c1ccccc1
T/C (dose: 0.62 mg/kg/injection, schedule: Q01DX009 (ip), vehicle: saline with Tween-80): 95 % of control
T/C (dose: 1.25 mg/kg/injection, schedule: Q01DX009 (ip), vehicle: saline with Tween-80): 100 % of control
T/C (dose: 2.5 mg/kg/injection, schedule: Q01DX009 (ip), vehicle: saline with Tween-80): 104 % of control
T/C (dose: 5.0 mg/kg/injection, schedule: Q01DX009 (ip), vehicle: saline with Tween-80): 117 % of control
T/C (dose: 5.0 mg/kg/injection, schedule: Q04DX003 (ip), vehicle: saline with Tween-80): 100 % of control
T/C (dose: 10.0 mg/kg/injection, schedule: Q01DX009 (ip), vehicle: saline with Tween-80): 95 % of control
T/C (dose: 10.0 mg/kg/injection, schedule: Q04DX003 (ip), vehicle: saline with Tween-80): 87 % of control

NC(=O)Nc1cc2[nH]c(=O)oc2cc1Cl
T/C (dose: 12.5 mg/kg/injection, schedule: Q01DX005 (ip), vehicle: Klucel (hydroxypropylcellulose) (HPC)): 100 % of control
T/C (dose: 25.0 mg/kg/injection, schedule: Q01DX005 (ip), vehicle: Klucel (hydroxypropylcellulose) (HPC)): 102 % of control
T/C (dose: 50.0 mg/kg/injection, schedule: Q01DX005 (ip), vehicle: Klucel (hydroxypropylcellulose) (HPC)): 88 % of control
T/C (dose: 100.0 mg/kg/injection, schedule: Q01DX005 (ip), vehicle: Klucel (hydroxypropylcellulose) (HPC)): 92 % of control

CCC(C)(C)C(=O)O
T/C [1]: 100 % of control
T/C [2]: 100 % of control

CC([NH-])C[NH-].O=C(O)C(=O)O.[Pt+2]
T/C (dose: 6.25 mg/kg/injection, schedule: Q04DX002 (ip), vehicle: saline with Tween-80): 151 % of control
T/C (dose: 6.25 mg/kg/injection, schedule: Q04DX002 (ip), vehicle: saline): 150 % of control

CC(=O)NCC(CN(C)C)(c1ccccc1)c1ccccc1
T/C (dose: 37.5 mg/kg/injection, schedule: Q01DX009 (ip), vehicle: Klucel (hydroxypropylcellulose) (HPC)): 101 % of control
T/C (dose: 75.0 mg/kg/injection, schedule: Q01DX009 (ip), vehicle: Klucel (hydroxypropylcellulose) (HPC)): 101 % of control
T/C (dose: 150.0 mg/kg/injection, schedule: Q01DX009 (ip), vehicle: Klucel (hydroxypropylcellulose) (HPC)): 96 % of control
T/C (dose: 300.0 mg/kg/injection, schedule: Q01DX009 (ip), vehicle: Klucel (hydroxypropylcellulose) (HPC)): 95 % of control

Cc1csc(=S)n1C
T/C [3]: 92 % of control
T/C [4]: 95 % of control

c1ccc2c(c1)Sc1ccccc1N2CC1CN2CCC1CC2 (stereo unspecified)
T/C [5]: 107 % of control
T/C [6]: 98 % of control and 114 % of control
T/C (dose: 25.0 mg/kg/injection, schedule: Q01DX009 (ip), vehicle: saline with Tween-80): 112 % of control and 123 % of control
T/C [7]: 104 % of control

C1=CC2C3CSCC3C1C1CC21 (stereo unspecified)
T/C (dose: 100.0 mg/kg/injection, schedule: Q04DX003 (ip), vehicle: saline): 105 % of control
T/C (dose: 200.0 mg/kg/injection, schedule: Q04DX003 (ip), vehicle: saline): 103 % of control
T/C (dose: 400.0 mg/kg/injection, schedule: Q04DX003 (ip), vehicle: saline): 102 % of control

CC(=O)NNc1cccc(Cl)n1
T/C (dose: 100.0 mg/kg/injection, schedule: Q01DX001 (ip), vehicle: Klucel (hydroxypropylcellulose) (HPC)): 98 % of control
T/C (dose: 200.0 mg/kg/injection, schedule: Q01DX001 (ip), vehicle: Klucel (hydroxypropylcellulose) (HPC)): 96 % of control
T/C (dose: 400.0 mg/kg/injection, schedule: Q01DX001 (ip), vehicle: Klucel (hydroxypropylcellulose) (HPC)): 97 % of control

CS(=O)(=O)OCCC[Se]Cc1ccccc1C[Se]CCCOS(C)(=O)=O
T/C (dose: 60.0 mg/kg/injection, schedule: Q01DX005 (ip), vehicle: saline with Tween-80): 93 % of control
T/C (dose: 120.0 mg/kg/injection, schedule: Q01DX005 (ip), vehicle: saline with Tween-80): 91 % of control

COc1ccc(CN2COc3c(cc(C)c4cccnc34)C2)cc1
T/C [7]: 98 % of control
T/C [2]: 111 % of control

C=C1C(=O)O[C@@H]2[C@H](O)[C@@H](C)[C@@H]3C=CC(=O)[C@@]3(C)[C@H](OC(=O)C=C(C)C)[C@H]12
T/C (dose: 1.56 mg/kg/injection, schedule: Q01DX009 (ip), vehicle: saline with Tween-80): 121 % of control
T/C (dose: 3.12 mg/kg/injection, schedule: Q01DX009 (ip), vehicle: saline with Tween-80): 120 % of control
T/C (dose: 3.12 mg/kg/injection, schedule: Q01DX009 (ip), vehicle: saline): 151 % of control
T/C [5]: 117 % of control and 121 % of control
T/C [6]: 107 % of control and 121 % of control
T/C [8]: 150 % of control

O=S(=O)(Nc1ccccn1)c1ccc(N=Cc2c3ccccc3nc3cc(Cl)ccc23)cc1
T/C [9]: 91 % of control
T/C [10]: 88 % of control

O=[N+]([O-])c1ccc(C(Cl)C2(Br)C=c3ccccc3=C2)cc1 (stereo unspecified)
T/C (dose: 100.0 mg/kg/injection, schedule: Q04DX003 (ip), vehicle: Klucel (hydroxypropylcellulose) (HPC)): 100 % of control
T/C (dose: 200.0 mg/kg/injection, schedule: Q04DX003 (ip), vehicle: Klucel (hydroxypropylcellulose) (HPC)): 100 % of control
T/C (dose: 400.0 mg/kg/injection, schedule: Q04DX003 (ip), vehicle: Klucel (hydroxypropylcellulose) (HPC)): 95 % of control

Cc1c(COC(=O)NC(C)C)c(COC(=O)NC(C)C)c2n1CCS2(=O)=O
T/C [11]: 92 % of control
T/C [9]: 100 % of control
T/C [10]: 92 % of control
T/C [12]: 86 % of control and 91 % of control
T/C (dose: 400.0 mg/kg/injection, schedule: Q01DX005 (ip), vehicle: saline with Tween-80): 91 % of control

CCCCCCCCCCCCCOC(=O)c1ccc(O)cc1
T/C [7]: 98 % of control
T/C [1]: 94 % of control
T/C [2]: 88 % of control

COC(=O)NC1(NC(=O)OC)NC(=O)c2cc(OC)c(OC)cc2N1
T/C [11]: 102 % of control
T/C [9]: 99 % of control
T/C [10]: 98 % of control
T/C [12]: 118 % of control

O=C(NC(Cc1ccccc1)C(=O)CCC(=O)N1CCCC1C(=O)O)c1ccccc1 (stereo unspecified)
T/C (dose: 50.0 mg/kg/injection, schedule: Q04DX002 (ip), vehicle: saline with Tween-80): 103 % of control
T/C (dose: 100.0 mg/kg/injection, schedule: Q04DX002 (ip), vehicle: saline with Tween-80): 101 % of control
T/C (dose: 200.0 mg/kg/injection, schedule: Q04DX002 (ip), vehicle: saline with Tween-80): 101 % of control
T/C (dose: 400.0 mg/kg/injection, schedule: Q04DX002 (ip), vehicle: saline with Tween-80): 101 % of control

Cc1c(COC(=O)NC2CCCCC2)c(COC(=O)NC2CCCCC2)c2c3ccccc3c3ccccc3n12
T/C (dose: 12.5 mg/kg/injection, schedule: Q01DX009 (ip), vehicle: distilled water + Tween-80): 106 % of control
T/C (dose: 25.0 mg/kg/injection, schedule: Q01DX009 (ip), vehicle: distilled water + Tween-80): 100 % of control and 93 % of control
T/C (dose: 50.0 mg/kg/injection, schedule: Q01DX009 (ip), vehicle: distilled water + Tween-80): 101 % of control and 106 % of control
T/C (dose: 100.0 mg/kg/injection, schedule: Q01DX009 (ip), vehicle: distilled water + Tween-80): 101 % of control and 110 % of control
T/C (dose: 200.0 mg/kg/injection, schedule: Q01DX009 (ip), vehicle: distilled water + Tween-80): 110 % of control

Cc1cccc(C(=O)CCN(C)C)c1
T/C [8]: 94 % of control
T/C (dose: 25.0 mg/kg/injection, schedule: Q01DX009 (ip), vehicle: saline): 99 % of control
T/C [3]: 100 % of control and 101 % of control and 108 % of control
T/C [4]: 98 % of control

FC(F)(F)c1ccccc1N=Cc1ccc(C=Nc2ccccc2C(F)(F)F)cc1
T/C (dose: 50.0 mg/kg/injection, schedule: Q01DX009 (ip), vehicle: Klucel (hydroxypropylcellulose) (HPC)): 98 % of control
T/C (dose: 100.0 mg/kg/injection, schedule: Q01DX009 (ip), vehicle: Klucel (hydroxypropylcellulose) (HPC)): 91 % of control

CC[C@@]1(O)C(=O)OCc2c1cc1n(c2=O)Cc2cc3cc(O)ccc3nc2-1
T/C (dose: 0.5 mg/kg/injection, schedule: Q04DX003 (ip), vehicle: other): 160 % of control and 229 % of control
T/C (dose: 0.79 mg/kg/injection, schedule: Q04DX003 (ip), vehicle: other): 165 % of control
T/C (dose: 1.0 mg/kg/injection, schedule: Q04DX003 (ip), vehicle: other): 166 % of control and 192 % of control
T/C (dose: 1.57 mg/kg/injection, schedule: Q04DX003 (ip), vehicle: other): 199 % of control
T/C (dose: 2.0 mg/kg/injection, schedule: Q04DX003 (ip), vehicle: other): 229 % of control
T/C (dose: 3.13 mg/kg/injection, schedule: Q04DX003 (ip), vehicle: other): 295 % of control
T/C (dose: 4.0 mg/kg/injection, schedule: Q04DX003 (ip), vehicle: other): 284 % of control and 314 % of control
T/C (dose: 8.0 mg/kg/injection, schedule: Q04DX003 (ip), vehicle: other): 101 % of control
